From ChEMBL document CHEMBL5055633, “Amphipathic Barbiturates as Mimics of Antimicrobial Peptides and the Marine Natural Products Eusynstyelamides with Activity against Multi-resistant Clinical Isolates” (J Med Chem, 2021)
≈ marks a conversion by molar mass, not a printed value.

Legend:
Enterococcus faecium [1] = assay: Antimicrobial activity against extended spectrum-lactamase-carbapenemas producing Enterococcus faecium strain K36-18 assessed as reduction in bacterial growth incubated for 48 hrs by microdilution method; format: functional
Pseudomonas aeruginosa [2] = assay: Antimicrobial activity against verona integron-encoded metallo-beta-lactamase producing Pseudomonas aeruginosa 50692520 assessed as reduction in bacterial growth incubated for 48 hrs by microdilution method; format: functional
[3] = system: Corynebacterium glutamicum; assay: Antimicrobial activity against Corynebacterium glutamicum ATCC 13032 assessed as reduction in bacterial growth incubated for 48 hrs by microdilution susceptibility test; format: functional
Escherichia coli [4] = assay: Antimicrobial activity against verona integron-encoded metallo-beta-lactamase-29-producing Escherichia coli 50639799 assessed as reduction in bacterial growth incubated for 48 hrs by microdilution method; format: functional
Enterococcus faecium [5] = assay: Antimicrobial activity against extended spectrum-lactamase-carbapenemas producing Enterococcus faecium strain TUH.50-22 assessed as reduction in bacterial growth incubated for 48 hrs by microdilution method; format: functional
Pseudomonas aeruginosa [6] = assay: Antimicrobial activity against verona integron-encoded metallo-beta-lactamase-2 producing Pseudomonas aeruginosa K34-7 assessed as reduction in bacterial growth incubated for 48 hrs by microdilution method; format: functional
Escherichia coli [7] = assay: Antimicrobial activity against New Delhi metallo-beta lactamase-1 producing Escherichia coli 50676002 assessed as reduction in bacterial growth incubated for 48 hrs by microdilution method; format: functional
Acinetobacter baumannii [8] = assay: Antimicrobial activity against oxacillinase-24 producing Acinetobacter baumannii K55-13 assessed as reduction in bacterial growth incubated for 48 hrs by microdilution method; format: functional
Staphylococcus aureus [9] = assay: Antimicrobial activity against extended spectrum-lactamase-carbapenemas producing Staphylococcus aureus strain 85/2082 assessed as reduction in bacterial growth incubated for 48 hrs by microdilution method; format: functional
Enterococcus faecium [10] = assay: Antimicrobial activity against extended spectrum-lactamase-carbapenemas producing Enterococcus faecium strain 50673722 assessed as reduction in bacterial growth incubated for 48 hrs by microdilution method; format: functional
Acinetobacter baumannii [11] = assay: Antimicrobial activity against oxacillinase-58 producing Acinetobacter baumannii K12-21 assessed as reduction in bacterial growth incubated for 48 hrs by microdilution method; format: functional
Acinetobacter baumannii [12] = assay: Antimicrobial activity against oxacillinase-23 producing Acinetobacter baumannii K63-58 assessed as reduction in bacterial growth incubated for 48 hrs by microdilution method; format: functional
[13] = Antimicrobial activity against New Delhi metallo-beta lactamase-1 and oxacillinase -181 producing Klebsiella pneumoniae 50531633 assessed as reduction in bacterial growth incubated for 48 hrs by microdilution method; format: functional
MRC5 = assay: Cytotoxicity against human MRC5 cells assessed as reduction in cell viability incubated for 24 hrs by colorimetric tetrazolium assay; format: functional, cell-based; details: MRC5, 24 h
[14] = Antimicrobial activity against New Delhi metallo-beta lactamase-1 Klebsiella pneumoniae K66-45 assessed as reduction in bacterial growth incubated for 48 hrs by microdilution method; format: functional
Enterococcus faecium [15] = assay: Antimicrobial activity against extended spectrum-lactamase-carbapenemas producing Enterococcus faecium strain 50758899 assessed as reduction in bacterial growth incubated for 48 hrs by microdilution method; format: functional
Escherichia coli [16] = assay: Antimicrobial activity against Escherichia coli ATCC 25922 assessed as reduction in bacterial growth incubated for 48 hrs by microdilution susceptibility test; format: functional
Staphylococcus aureus [17] = assay: Antimicrobial activity against extended spectrum-lactamase-carbapenemas producing Staphylococcus aureus NCTC 10442 assessed as reduction in bacterial growth incubated for 48 hrs by microdilution method; format: functional
Staphylococcus aureus [18] = assay: Antimicrobial activity against Staphylococcus aureus ATCC 9144 assessed as reduction in bacterial growth incubated for 48 hrs by microdilution susceptibility test; format: functional
Staphylococcus aureus [19] = assay: Antimicrobial activity against extended spectrum-lactamase-carbapenemas producing Staphylococcus aureus strain IHT 99040 assessed as reduction in bacterial growth incubated for 48 hrs by microdilution method; format: functional
Enterococcus faecium [20] = assay: Antimicrobial activity against extended spectrum-lactamase-carbapenemas producing Enterococcus faecium strain 50901530 assessed as reduction in bacterial growth incubated for 48 hrs by microdilution method; format: functional
Staphylococcus aureus [21] = assay: Antimicrobial activity against extended spectrum-lactamase-carbapenemas producing Staphylococcus aureus N315 assessed as reduction in bacterial growth incubated for 48 hrs by microdilution method; format: functional
Escherichia coli [22] = assay: Antimicrobial activity against imipenem-type carbapenemase-26 producing Escherichia coli 50857972 assessed as reduction in bacterial growth incubated for 48 hrs by microdilution method; format: functional
[23] = Antimicrobial activity against oxacillinase-245 producing Klebsiella pneumoniae 50625602 assessed as reduction in bacterial growth incubated for 48 hrs by microdilution method; format: functional
Pseudomonas aeruginosa [24] = assay: Antimicrobial activity against New Delhi metallo-beta lactamase-1 producing Pseudomonas aeruginosa 50692172 assessed as reduction in bacterial growth incubated for 48 hrs by microdilution method; format: functional
Pseudomonas aeruginosa [25] = assay: Antimicrobial activity against verona integron-encoded metallo-beta-lactamase-4 producing Pseudomonas aeruginosa K34-73 assessed as reduction in bacterial growth incubated for 48 hrs by microdilution method; format: functional
HepG2 = assay: Cytotoxicity against human HepG2 cells assessed as reduction in cell viability incubated for 24 hrs by colorimetric tetrazolium assay; format: functional, cell-based; details: HepG2, 24 h
Escherichia coli [26] = assay: Antimicrobial activity against New Delhi metallo-beta lactamase-1 producing Escherichia coli 50739822 assessed as reduction in bacterial growth incubated for 48 hrs by microdilution method; format: functional
[27] = Hemolytic activity in human erythrocytes incubated for 1 hr by microplate reader; format: functional, cell-based; details: erythrocyte
Acinetobacter baumannii [28] = assay: Antimicrobial activity against oxacillinase-23 producing Acinetobacter baumannii K44-35 assessed as reduction in bacterial growth incubated for 48 hrs by microdilution method; format: functional
[29] = Antimicrobial activity against carbapenemase producing Klebsiella pneumoniae K47-25 assessed as reduction in bacterial growth incubated for 48 hrs by microdilution method; format: functional
[30] = Antimicrobial activity against verona integron-encoded metallo-beta-lactamase -1 producing Klebsiella pneumoniae 50667959 assessed as reduction in bacterial growth incubated for 48 hrs by microdilution method; format: functional
Acinetobacter baumannii [31] = assay: Antimicrobial activity against oxacillinase-23 producing Acinetobacter baumannii K47-42 assessed as reduction in bacterial growth incubated for 48 hrs by microdilution method; format: functional
Pseudomonas aeruginosa [32] = assay: Antimicrobial activity against Pseudomonas aeruginosa PAO1 assessed as reduction in bacterial growth incubated for 48 hrs by microdilution susceptibility test; format: functional
Pseudomonas aeruginosa [33] = assay: Antimicrobial activity against imipenem-type carbapenemase-14 producing Pseudomonas aeruginosa K44-24 assessed as reduction in bacterial growth incubated for 48 hrs by microdilution method; format: functional
Staphylococcus aureus [34] = assay: Antimicrobial activity against extended spectrum-lactamase-carbapenemas producing Staphylococcus aureus strain WIS assessed as reduction in bacterial growth incubated for 48 hrs by microdilution method; format: functional
Escherichia coli [35] = assay: Antimicrobial activity against oxacillinase-producing Escherichia coli 50579417 assessed as reduction in bacterial growth incubated for 48 hrs by microdilution method; format: functional

SMILES | MIC (Enterococcus faecium [1]) [µg/mL] | MIC (Pseudomonas aeruginosa [2]) [µg/mL] | MIC [3] [µg/mL] | MIC (Escherichia coli [4]) [µg/mL] | MIC (Enterococcus faecium [5]) [µg/mL] | MIC (Pseudomonas aeruginosa [6]) [µg/mL] | MIC (Escherichia coli [7]) [µg/mL] | MIC (Acinetobacter baumannii [8]) [µg/mL] | MIC (Staphylococcus aureus [9]) [µg/mL] | MIC (Enterococcus faecium [10]) [µg/mL] | MIC (Acinetobacter baumannii [11]) [µg/mL] | MIC (Acinetobacter baumannii [12]) [µg/mL] | MIC [13] [µg/mL] | IC50 (MRC5) [µg/mL] | MIC [14] [µg/mL] | MIC (Enterococcus faecium [15]) [µg/mL] | MIC (Escherichia coli [16]) [µg/mL] | MIC (Staphylococcus aureus [17]) [µg/mL] | MIC (Staphylococcus aureus [18]) [µg/mL] | MIC (Staphylococcus aureus [19]) [µg/mL] | also measured
NCCCCN1C(=O)N(CCCCN)C(=O)C(Cc2ccc(Br)c(Cl)c2)(Cc2ccc(Br)c(Cl)c2)C1=O.O=C(O)C(F)(F)F.O=C(O)C(F)(F)F | 16 | 32 | 1 | 16 | 4 | 32 | 16 | 32 | 4 | 16 | 32 | 32 | 16 | 10 | 32 | 16 | 16 | 8 | 4 | 4 | MIC (Enterococcus faecium [20]): 8 µg/mL; MIC (Staphylococcus aureus [21]): 8 µg/mL; MIC (Escherichia coli [22]): 16 µg/mL; MIC [23]: 32 µg/mL; MIC (Pseudomonas aeruginosa [24]): 32 µg/mL; MIC (Pseudomonas aeruginosa [25]): 32 µg/mL; IC50 (HepG2): 6 µg/mL; MIC (Escherichia coli [26]): 16 µg/mL; EC50 [27]: 172 µg/mL; MIC (Acinetobacter baumannii [28]): 32 µg/mL; MIC [29]: 32 µg/mL; MIC [30]: 32 µg/mL; MIC (Acinetobacter baumannii [31]): 32 µg/mL; MIC (Pseudomonas aeruginosa [32]): 32 µg/mL; MIC (Pseudomonas aeruginosa [33]): 32 µg/mL; MIC (Staphylococcus aureus [34]): 8 µg/mL; MIC (Escherichia coli [35]): 16 µg/mL
NCCCCN1C(=O)N(CCCCN)C(=O)C(Cc2cc(C(F)(F)F)cc(C(F)(F)F)c2)(Cc2cc(C(F)(F)F)cc(C(F)(F)F)c2)C1=O.O=C(O)C(F)(F)F.O=C(O)C(F)(F)F | 16 | 32 | 4 | 16 | 8 | 32 | 16 | 32 | 16 | 8 | 16 | 32 | 32 | 17 | 32 | 16 | 16 | 16 | 16 | 16 | MIC (Enterococcus faecium [20]): 8 µg/mL; MIC (Staphylococcus aureus [21]): 16 µg/mL; MIC (Escherichia coli [22]): 8 µg/mL; MIC [23]: 32 µg/mL; MIC (Pseudomonas aeruginosa [24]): 32 µg/mL; MIC (Pseudomonas aeruginosa [25]): 32 µg/mL; IC50 (HepG2): 9 µg/mL; MIC (Escherichia coli [26]): 16 µg/mL; EC50 [27]: 177 µg/mL; MIC (Acinetobacter baumannii [28]): 32 µg/mL; MIC [29]: > 32 µg/mL; MIC [30]: 32 µg/mL; MIC (Acinetobacter baumannii [31]): 32 µg/mL; MIC (Pseudomonas aeruginosa [32]): 16 µg/mL; MIC (Pseudomonas aeruginosa [33]): 32 µg/mL; MIC (Staphylococcus aureus [34]): 16 µg/mL; MIC (Escherichia coli [35]): 16 µg/mL
CC(C)(C)c1cc(CC2(Cc3cc(C(C)(C)C)cc(C(C)(C)C)c3)C(=O)N(CCCCNC(=N)N)C(=O)N(CCCCNC(=N)N)C2=O)cc(C(C)(C)C)c1.O=C(O)C(F)(F)F.O=C(O)C(F)(F)F | 2 | 16 | 0.25 | 8 | 2 | 16 | 16 | 4 | 2 | 2 | 4 | 4 | 16 | 17 | 8 | 2 | 4 | 2 | 1 | 2 | MIC (Enterococcus faecium [20]): 2 µg/mL; MIC (Staphylococcus aureus [21]): 4 µg/mL; MIC (Escherichia coli [22]): 8 µg/mL; MIC [23]: 16 µg/mL; MIC (Pseudomonas aeruginosa [24]): 16 µg/mL; MIC (Pseudomonas aeruginosa [25]): 8 µg/mL; IC50 (HepG2): 15 µg/mL; MIC (Escherichia coli [26]): 8 µg/mL; EC50 [27]: < 6 µg/mL; MIC (Acinetobacter baumannii [28]): 4 µg/mL; MIC [29]: 16 µg/mL; MIC [30]: 8 µg/mL; MIC (Acinetobacter baumannii [31]): 4 µg/mL; MIC (Pseudomonas aeruginosa [32]): 4 µg/mL; MIC (Pseudomonas aeruginosa [33]): 16 µg/mL; MIC (Staphylococcus aureus [34]): 2 µg/mL; MIC (Escherichia coli [35]): 16 µg/mL
N=C(N)NCCCCN1C(=O)N(CCCCNC(=N)N)C(=O)C(Cc2ccc3ccccc3c2)(Cc2ccc3ccccc3c2)C1=O.O=C(O)C(F)(F)F.O=C(O)C(F)(F)F | 16 | 32 | 0.25 | 8 | 8 | 32 | 8 | 32 | 8 | 16 | 32 | 32 | 16 | 30 | 16 | 16 | 1 | 8 | 1 | 8 | MIC (Enterococcus faecium [20]): 8 µg/mL; MIC (Staphylococcus aureus [21]): 8 µg/mL; MIC (Escherichia coli [22]): 8 µg/mL; MIC [23]: 16 µg/mL; MIC (Pseudomonas aeruginosa [24]): 32 µg/mL; MIC (Pseudomonas aeruginosa [25]): 32 µg/mL; IC50 (HepG2): 59 µg/mL; MIC (Escherichia coli [26]): 8 µg/mL; EC50 [27]: 133 µg/mL; MIC (Acinetobacter baumannii [28]): 32 µg/mL; MIC [29]: 16 µg/mL; MIC [30]: 16 µg/mL; MIC (Acinetobacter baumannii [31]): 32 µg/mL; MIC (Pseudomonas aeruginosa [32]): 8 µg/mL; MIC (Pseudomonas aeruginosa [33]): 32 µg/mL; MIC (Staphylococcus aureus [34]): 8 µg/mL; MIC (Escherichia coli [35]): 16 µg/mL
CN(C)[C@@H]1C(O)=C(C(N)=O)C(=O)[C@@]2(O)C(O)=C3C(=O)c4c(O)cccc4[C@@](C)(O)[C@H]3[C@H](O)[C@@H]12 [OXYTETRACYCLINE] |  |  | 2.5 (≈ 5.43 µM) |  |  |  |  |  |  |  |  |  |  |  |  |  | 20 (≈ 43.4 µM) |  | 0.65 (≈ 1.41 µM) |  | 
